Each structure is given as a SMILES string.

By IC50 is commonly meant the concentration that gives 50% inhibition.

The target in test [1] is T1, human rec ACSS2 (Homo sapiens, UniProt Q9NR19).
T1 construct: myc (C); purchased Origene
The experiment in a line: Biochemical activity ACSS2 assay (AMP-Glo). Conditions: human recombinant ACSS2, AMP-Glo, 180 min at 37° C. Summed up: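 C-terminal myc-tagged human recombinant ACSS2 (1 nM) reacted with 100 µM ATP, 100 µM CoA and 500 µM acetate (final) in pH 7.5 Hepes buffer for 180 min at 37° C, compound in 10 concentrations from 30 µM. Released AMP detected by AMP-Glo luminescence. IC50 normalised to inhibitor-free reaction and 5 µM reference inhibitor.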

Test [2] has as its target T2, ACSS2 (Homo sapiens, UniProt Q9NR19).
T2 construct: endogenous fatty acid synthesis activity in the human HCT-15 cancer cell line; endogenous in cells; host or cells: HCT-15
The experiment in a line: Cellular assay of 14C acetate incorporation into fatty acids (IC50 ACSS2 cellular lipids). It counts as cell-based. Conditions: HCT-15 cells. Here is the method: This protocol describes a cellular assay capable to quantify endogenous fatty acid synthesis activity in the human HCT-15 cancer cell line following the incorporation of extracellularly administered radiolabeled ^14C acetate with a scintillation proximity based read out on extracted fatty acids.
HCT-15 cells were grown in RPMI 1640 (Gibco) supplemented with 2 mM glutamine, 1 mM sodium pyruvate 10 mM HEPES and 10 % FCS (heat-inactivated) passaged every 2-3 days to remain a subconfluent, vital culture. A working cell bank was prepared with each aliquot containing 1x10^7 viable cells. After thawing, these cells are dilute immediately 1:20 in pre-warmed (37° C.) culture medium. Cells are collected by centrifugation at 200 x g for 5 min, and the supernatant is replaced by 30 mL of fresh culture medium per aliquot to obtain a cell suspension containing 350000 cells/ml. From this cell suspension 100 µL are dispersed into each well of a collagen coated 96 well plate, (black, clear bottom, PS, F-bottom, Greiner) and culture for 24 h (37° C., 5% CO2). After incubation the culture medium is removed and the wells are washed once with 100 µL PBS++ (supplemented with Mg^2+/ Ca^2+, Gibco) and 50 µL assay medium (RPMI 1640 + 10 mM HEPES) are added to each well. Compounds serial dilutions are prepared from 10 mM stock solutions in DMSO using a fixed dilution factor (usually 1:3). After preparation of the dilution series in DMSO, the individual dilutions are further diluted in the assay medium. This working dilution is prepared such, that the concentration is 7x of the final concentration in the assay. The maximal DMSO concentration in the final assay is 0.1%.
To each well 10 µL compound working dilution or DMSO blank are added and the cells are cultured for 2 h (37° C., 5% CO2). Then 10 µL AlamarBlue reagent (Invitrogen) containing 14 µCi/mL ^14C-acetate (Perkin Elmer) are added to each well (70 µl total volume) and cells are again cultured for 2 h. Cell viability is verified by measuring the AlamarBlue fluorescence (Tecan Safire, ex: 544 nm / em: 590 nm). After incubation the culture medium is removed and the wells are carefully washed once with cold 100 µL PBS++. For cell lysis and fatty acid recovery 50 µl 0.1 M NaOH and 0.1 % Triton-X100 are added per well. The plate is sealed with PlateLoc (clear peelable heat seal, Agilent) and incubate at 70° C. for 16-24 h. After cooling to room temperature, the plates are centrifuged for 1 min at 1000 rpm and the plate seals are removed. For acidification 150 µL 0.1 M HCl are added to each well, mixed and 150 µL of the mixture are transferred into a 96 well FlashPlate (Perkin Elmer). The plates are sealed with TopSeaI-a (Perkin Elmer). To allow for the fatty acid binding to the well surfaces the plates are incubate for 4 h at 70° C. After cooling to room temperature, the plates are centrifuged for 1 min at 1000 rpm and stored for 0.5-2 h at room temperature in the dark. Radioactivity from ^14C incorporation into fatty acids in the wells is measured as CPM count in a MicroBeta scintillation counter (Perkin Elmer).

T2 sequence (Q9NR19 whole entry): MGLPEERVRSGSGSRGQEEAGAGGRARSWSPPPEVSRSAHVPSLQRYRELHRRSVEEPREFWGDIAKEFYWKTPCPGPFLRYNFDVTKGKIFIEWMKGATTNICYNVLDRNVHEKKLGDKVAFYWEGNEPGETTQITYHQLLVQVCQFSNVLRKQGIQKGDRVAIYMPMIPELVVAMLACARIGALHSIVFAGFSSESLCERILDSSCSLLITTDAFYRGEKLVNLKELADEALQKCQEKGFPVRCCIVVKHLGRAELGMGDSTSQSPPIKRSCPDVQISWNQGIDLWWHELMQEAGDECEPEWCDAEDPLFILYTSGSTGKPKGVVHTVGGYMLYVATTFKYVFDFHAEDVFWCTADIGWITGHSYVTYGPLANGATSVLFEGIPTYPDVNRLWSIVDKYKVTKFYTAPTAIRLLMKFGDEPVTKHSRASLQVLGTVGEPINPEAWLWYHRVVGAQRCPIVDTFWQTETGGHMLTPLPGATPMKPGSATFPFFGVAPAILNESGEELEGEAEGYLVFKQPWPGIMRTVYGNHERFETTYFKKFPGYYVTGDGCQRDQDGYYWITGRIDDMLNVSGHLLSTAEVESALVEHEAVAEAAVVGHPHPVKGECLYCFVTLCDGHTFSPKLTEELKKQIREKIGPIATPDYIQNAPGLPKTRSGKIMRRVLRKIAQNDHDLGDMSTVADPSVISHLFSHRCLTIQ
T1 sequence (Q9NR19 whole entry): as above

In the case of `CCn1cnc(NC(=O)c2cc3c(nc2OC)nc(C(O)(c2ccccc2F)c2ccccc2F)n3CC)n1` [Compound 102, 2-[bis(2-fluorophenyl)(hydroxy)methyl]-1-ethyl-N-(1-ethyl-1H-1,2,4-triazol-3-yl)-5-methoxy-1H-imidazo[4,5-b]pyridine-6-carboxamide], the figures for the IC50 in test [1] and in test [2] were 0.01 to 1 nM and 1 to 10 nM, respectively.

For `CCc1c(C(O)(c2ccccc2)c2ccccn2)nc2cc(OC)c(C(=O)Nc3ncn(CC)n3)cn12` (racemic) [Compound 16, 3-Ethyl-2-(hydroxy-phenyl-pyridin-2-yl-methyl)-7-methoxy-imidazo[1,2-a]pyridine-6-carboxylic acid (1-ethyl-1H-[1,2,4]triazol-3-yl)-amide], the concentration for half-maximal inhibition (IC50) in test [1] and in test [2] was 10 to 100 nM throughout.

Consider `CCc1c(C(O)(c2ccccc2)c2ccccc2)nc2cc(OC)c(C(=O)Nc3cnn(CC)c3)cn12` [Compound 23, 3-Ethyl-2-(hydroxy-diphenyl-methyl)-7-methoxy-imidazo[1,2-a]pyridine-6-carboxylic acid (1-ethyl-1H-pyrazol-4-yl)-amide], for which the IC50 in test [1] lay in the range of 1 to 10 nM; in test [2] it was 10 to 100 nM.

Consider `CCc1c(C(O)(c2ccccc2)c2ccccc2)nn2cc(OC)c(C(=O)Nc3cnn(CC)c3)cc12` [Compound 8, 3-Ethyl-2-(hydroxy-diphenyl-methyl)-6-methoxy-pyrazolo[1,5-a]pyridine-5-carboxylic acid (1-ethyl-1H-pyrazol-4-yl)-amide], for which the 50% inhibitory concentration (IC50) in test [1] and in test [2] was 10 to 100 nM each time.

Consider `CCc1c(C(O)(c2ccccc2)c2ccccc2)nn2ccc(C(=O)Nc3cnn(CC)c3)cc12` [Compound 10, 3-Ethyl-2-(hydroxy-diphenyl-methyl)-pyrazolo[1,5-a]pyridine-5-carboxylic acid (1-ethyl-1H-pyrazol-4-yl)-amide], for which the IC50 in test [1] and in test [2] was 10 to 100 nM each time.

As to `CCc1c(C(O)(c2ccccc2F)c2ccccc2F)nn2ccc(C(=O)Nc3ncn(CC)n3)cc12` [Compound 5, 2-[Bis-(2-fluoro-phenyl)-hydroxy-methyl]-3-ethyl-pyrazolo[1,5-a]pyridine-5-carboxylic acid (1-ethyl-1H-[1,2,4]triazol-3-yl)-amide], the IC50 is 1 to 10 nM in test [1] and 0.01 to 1 nM in test [2].

Take `CCn1cnc(NC(=O)c2cc3c(nc2F)nc(C(O)(c2ccccc2F)c2ccccc2F)n3CC)n1` [Compound 91, 2-[bis(2-fluorophenyl)(hydroxy)methyl]-1-ethyl-N-(1-ethyl-1H-1,2,4-triazol-3-yl)-5-fluoro-1H-imidazo[4,5-b]pyridine-6-carboxamide]: the IC50 in test [1] and in test [2] was 1 to 10 nM throughout.

For the molecule `CCn1c(C(O)(c2ccccc2)c2ccccc2)nc2ccc(C(=O)NC[C@@H](C)O)cc21` [Reference Compound, 3-Ethyl-2-[hydroxy(diphenyl)methyl]-N-[(2R)-2-hydroxypropyl]benzimidazole-5-carboxamide, reference compound], the IC50 fell in the range of 100 to 10000 nM in test [1] and 1 to 10 nM in test [2].

As for `CCc1c(C(O)(c2ccccc2F)c2ccccc2F)nc2cc(OC)c(C(=O)Nc3cnn(CC)c3)cn12` [Compound 30, 2-[Bis-(2-fluoro-phenyl)-hydroxy-methyl]-3-ethyl-7-methoxy-imidazo[1,2-a]pyridine-6-carboxylic acid (1-ethyl-1H-pyrazol-4-yl)-amide], the results for the IC50 in test [1] and in test [2] were 1 to 10 nM and 0.01 to 1 nM, respectively.

As for `CCc1c(C(O)(c2ccccc2)c2ccccc2)nc2cc(F)c(C(=O)Nc3ncn(CC)n3)cn12` [Compound 20, 3-Ethyl-7-fluoro-2-(hydroxy-diphenylmethyl)-imidazo[1,2-a]pyridine-6-carboxylic acid (1-ethyl-1H-[1,2,4]triazol-3-yl)-amide], the IC50 in test [1] and in test [2] was 1 to 10 nM each time.

With `CCc1c(C(O)(c2ccccc2F)c2ccccc2F)nn2cc(C)c(C(=O)Nc3ncn(CC)n3)cc12` [Compound 3, 2-[Bis-(2-fluoro-phenyl)-hydroxy-methyl]-3-ethyl-6-methyl-pyrazolo[1,5-a]pyridine-5-carboxylic acid (1-ethyl-1H-[1,2,4]triazol-3-yl)-amide], the IC50 lay within 1 to 10 nM in test [1] and 10 to 100 nM in test [2].

On to `CCc1c(C(O)(c2ccccc2)c2ccccc2)nn2cc(Cl)c(C(=O)Nc3cnn(CC)c3)cc12` [Compound 6, 6-Chloro-3-ethyl-2-(hydroxy-diphenylmethyl)-pyrazolo[1,5-a]pyridine-5-carboxylic acid (1-ethyl-1H-pyrazol-4-yl)-amide], for which the IC50 was 10 to 100 nM in test [1] and 1 to 10 nM in test [2].

`CCc1c(C(O)(c2ccccc2F)c2ccccc2F)nn2cc(Cl)c(C(=O)Nc3ncn(CC)n3)cc12` [Compound 2, 2-[Bis-(2-fluoro-phenyl)-hydroxy-methyl]-6-chloro-3-ethyl-pyrazolo[1,5-a]pyridine-5-carboxylic acid (1-ethyl-1H-[1,2,4]triazol-3-yl)-amide]: the figures for the half-inhibitory concentration (IC50) in test [1] and in test [2] were 1 to 10 nM and 0.01 to 1 nM, respectively.

With `CCc1c(C(O)(c2ccccc2)c2ccccc2)nn2cc(Cl)c(C(=O)Nc3ncn(CC)n3)cc12` [Compound 1, 6-Chloro-3-ethyl-2-(hydroxy-diphenylmethyl)-pyrazolo[1,5-a]pyridine-5-carboxylic acid (1-ethyl-1H-[1,2,4]triazol-3-yl)-amide], the IC50 in test [1] and in test [2] was 0.01 to 1 nM throughout.

On to `CCc1c(C(O)(c2ccccc2)c2ccccc2)nc2ccc(C(=O)Nc3cnn(CC)c3)cn12` [Compound 13, 3-Ethyl-2-(hydroxy-diphenyl-methyl)-imidazo[1,2-a]pyridine-6-carboxylic acid (1-ethyl-1H-pyrazol-4-yl)-amide], for which the IC50 in test [1] lay within 10 to 100 nM; in test [2], 100 to 10000 nM.

In the case of `CCc1c(C(O)(c2ccccc2F)c2ccccc2F)nc2cc(OC)c(C(=O)Nc3ncn(CC)n3)cn12` [Compound 28, 2-[Bis-(2-fluoro-phenyl)-hydroxy-methyl]-3-ethyl-7-methoxy-imidazo[1,2-a]pyridine-6-carboxylic acid (1-ethyl-1H-[1,2,4]triazol-3-yl)-amide], the half-maximal inhibitory concentration (IC50) in test [1] and in test [2] was 1 to 10 nM throughout.

`CCc1c(C(O)(c2ccccc2F)c2ccccc2F)nn2cc(OC)c(C(=O)Nc3cnn(CC)c3)cc12` [Compound 4, 2-[Bis-(2-fluoro-phenyl)-hydroxy-methyl]-3-ethyl-6-methoxy-pyrazolo[1,5-a]pyridine-5-carboxylic acid (1-ethyl-1H-pyrazol-4-yl)-amide]: the IC50 in test [1] and in test [2] was 10 to 100 nM each time.

On to `CCn1cc(NC(=O)c2cc3c(nc2Cl)nc(C(O)(c2ccccc2)c2ccccc2)n3CC)cn1` [Compound 98, 5-chloro-1-ethyl-N-(1-ethyl-1H-pyrazol-4-yl)-2-(hydroxydiphenylmethyl)-1H-imidazo[4,5-b]pyridine-6-carboxamide], for which the IC50 in test [1] lay in the range of 1 to 10 nM; in test [2], 10 to 100 nM.

In the case of `CCn1cnc(NC(=O)c2cc3c(nc2OC)nc(C(O)(c2ccccc2F)c2ccc(OC(F)F)cc2F)n3CC)n1` (racemic) [Compound 94, 2-{[4-(difluoromethoxy)-2-fluorophenyl](2-fluorophenyl)hydroxymethyl}-1-ethyl-N-(1-ethyl-1H-1,2,4-triazol-3-yl)-5-methoxy-1H-imidazo[4,5-b]pyridine-6-carboxamide], the IC50 in test [1] and in test [2] was 1 to 10 nM in each case.

In the case of `CCn1cc(NC(=O)c2cc3c(nc2F)nc(C(O)(c2ccccc2F)c2ccccc2F)n3CC)cn1` [Compound 90, 2-[bis(2-fluorophenyl)(hydroxy)methyl]-1-ethyl-N-(1-ethyl-1H-pyrazol-4-yl)-5-fluoro-1H-imidazo[4,5-b]pyridine-6-carboxamide], the IC50 in test [1] and in test [2] was 1 to 10 nM throughout.
